# Source: article PMC5218480 (PLoS ONE, 2017)
# System: MV-4-11 cells
# Test: Gene expression microarray analysis (Affymetrix PrimeView) and GSEA
# Assay type: cell-based, human
# Design: RFU PODN (11730768_x_at) / Fold change /veh PODN (11730768_x_at) / RFU LINC00158 (11744669_a_at) / Fold change /veh LINC00158 (11744669_a_at) / RFU DUSP10 (11751237_a_at) / Fold change /veh DUSP10 (11751237_a_at) / RFU ID3 (11757404_x_at) / Fold change /veh ID3 (11757404_x_at) / RFU PLEKHG5 (11737974_s_at) / Fold change /veh PLEKHG5 (11737974_s_at) / RFU LRRC4B (11730491_at) / Fold change /veh LRRC4B (11730491_at) / RFU GIMAP4 (11747438_a_at) / Fold change /veh GIMAP4 (11747438_a_at) / RFU KRT8 (11758183_x_at) / Fold change /veh KRT8 (11758183_x_at) / RFU CNN1 (11734310_a_at) / Fold change /veh CNN1 (11734310_a_at) / RFU VPS37D (11726825_at) / Fold change /veh VPS37D (11726825_at) / RFU C10orf10 (11716522_x_at) / Fold change /veh C10orf10 (11716522_x_at) / RFU KIR2DL2 /// KIR2DL4 /// KIR2DL5A /// KIR2DL5B /// KIR2DS1 /// KIR2DS2 /// KIR2DS3 /// KIR2DS4 /// KIR3DL3 /// KIR3DL3 /// KIR3DS1 (11738374_at) / Fold change /veh KIR2DL2 /// KIR2DL4 /// KIR2DL5A /// KIR2DL5B /// KIR2DS1 /// KIR2DS2 /// KIR2DS3 /// KIR2DS4 /// KIR3DL3 /// KIR3DL3 /// KIR3DS1 (11738374_at) / RFU C1QL1 (11718748_at) / Fold change /veh C1QL1 (11718748_at) / RFU TMPRSS4 (11747572_a_at) / Fold change /veh TMPRSS4 (11747572_a_at) / RFU HAMP (11756126_x_at) / Fold change /veh HAMP (11756126_x_at) / RFU RNFT2 (11725882_a_at) / Fold change /veh RNFT2 (11725882_a_at) / RFU NR4A2 (11747474_a_at) / Fold change /veh NR4A2 (11747474_a_at) / RFU ABCC12 (11746883_a_at) / Fold change /veh ABCC12 (11746883_a_at) / RFU TMEM136 (11760407_x_at) / Fold change /veh TMEM136 (11760407_x_at) / RFU CLDN22 /// WWC2 (11732394_at) / Fold change /veh CLDN22 /// WWC2 (11732394_at) / RFU HLA-DPB1 (11760878_x_at) / Fold change /veh HLA-DPB1 (11760878_x_at) / RFU SPINT1 (11716480_a_at) / Fold change /veh SPINT1 (11716480_a_at) / RFU GAP43 (11754022_s_at) / Fold change /veh GAP43 (11754022_s_at) / RFU A4GNT (11735810_at) / Fold change /veh A4GNT (11735810_at) / RFU PRB3 (11715151_x_at) / Fold change /veh PRB3 (11715151_x_at) / RFU TUBB4B (11761932_at) / Fold change /veh TUBB4B (11761932_at) / RFU CAPN14 (11732068_a_at) / Fold change /veh CAPN14 (11732068_a_at) / RFU TMCC2 (11721928_a_at) / Fold change /veh TMCC2 (11721928_a_at) / RFU IRGQ (11745062_a_at) / Fold change /veh IRGQ (11745062_a_at) / RFU FAM174B (11720279_a_at) / Fold change /veh FAM174B (11720279_a_at) / RFU TMPRSS4 (11748680_a_at) / Fold change /veh TMPRSS4 (11748680_a_at) / RFU FAM212B (11763350_a_at) / Fold change /veh FAM212B (11763350_a_at) / RFU PLEKHG5 (11743358_a_at) / Fold change /veh PLEKHG5 (11743358_a_at) / RFU ZSCAN30 (11745921_a_at) / Fold change /veh ZSCAN30 (11745921_a_at) / RFU CMKLR1 (11741424_a_at) / Fold change /veh CMKLR1 (11741424_a_at) / RFU LOC101060620 /// MAPK8IP1 (11723275_at) / Fold change /veh LOC101060620 /// MAPK8IP1 (11723275_at) / RFU SPTSSB (11747773_x_at) / Fold change /veh SPTSSB (11747773_x_at) / RFU PRSS12 (11739890_at) / Fold change /veh PRSS12 (11739890_at) / RFU BIN1 (11741810_x_at) / Fold change /veh BIN1 (11741810_x_at) / RFU WNT11 (11732464_a_at) / Fold change /veh WNT11 (11732464_a_at) / RFU C10orf10 (11716521_a_at) / Fold change /veh C10orf10 (11716521_a_at) / RFU C5orf56 (11738089_at) / Fold change /veh C5orf56 (11738089_at) / RFU CYB561 (11721691_x_at) / Fold change /veh CYB561 (11721691_x_at) / RFU ANKRD19P (11752326_a_at) / Fold change /veh ANKRD19P (11752326_a_at) / RFU OR2T12 /// OR2T33 /// OR2T8 (11738714_s_at) / Fold change /veh OR2T12 /// OR2T33 /// OR2T8 (11738714_s_at) / RFU VCAN (11748164_a_at) / Fold change /veh VCAN (11748164_a_at) / RFU JSRP1 (11732532_at) / Fold change /veh JSRP1 (11732532_at) / RFU KRTAP10-11 (11738290_x_at) / Fold change /veh KRTAP10-11 (11738290_x_at) / RFU MYO3A (11730013_a_at) / Fold change /veh MYO3A (11730013_a_at) / RFU EBF3 (11725865_a_at) / Fold change /veh EBF3 (11725865_a_at) / RFU CAMK2N1 (11719241_x_at) / Fold change /veh CAMK2N1 (11719241_x_at) / RFU C5orf56 (11738088_a_at) / Fold change /veh C5orf56 (11738088_a_at) / RFU OLFML3 (11715873_a_at) / Fold change /veh OLFML3 (11715873_a_at) / RFU LOC100653217 /// NTM (11731650_a_at) / Fold change /veh LOC100653217 /// NTM (11731650_a_at) / RFU MAPK11 (11762145_a_at) / Fold change /veh MAPK11 (11762145_a_at) / RFU FIZ1 (11724087_x_at) / Fold change /veh FIZ1 (11724087_x_at) / RFU OASL (11726364_x_at) / Fold change /veh OASL (11726364_x_at) / RFU SOX15 (11748057_x_at) / Fold change /veh SOX15 (11748057_x_at) / RFU CD79A (11719716_a_at) / Fold change /veh CD79A (11719716_a_at) / RFU HIST1H1D (11736915_at) / Fold change /veh HIST1H1D (11736915_at) / RFU CASKIN2 (11723855_a_at) / Fold change /veh CASKIN2 (11723855_a_at) / RFU LOC730098 (11760151_x_at) / Fold change /veh LOC730098 (11760151_x_at) / RFU OR4N2 (11742367_at) / Fold change /veh OR4N2 (11742367_at) / RFU PRRT2 (11749266_a_at) / Fold change /veh PRRT2 (11749266_a_at) / RFU SNX32 (11753110_a_at) / Fold change /veh SNX32 (11753110_a_at) / RFU CDHR5 (11726645_a_at) / Fold change /veh CDHR5 (11726645_a_at) / RFU RCAN1 (11760418_a_at) / Fold change /veh RCAN1 (11760418_a_at) / RFU FAM167A (11723789_a_at) / Fold change /veh FAM167A (11723789_a_at) / RFU FAM26E (11764081_at) / Fold change /veh FAM26E (11764081_at) / RFU ISYNA1 (11749810_s_at) / Fold change /veh ISYNA1 (11749810_s_at) / RFU ACY1 (11761880_at) / Fold change /veh ACY1 (11761880_at) / RFU 11764098_at / Fold change /veh 11764098_at / RFU SAMD14 (11745864_x_at) / Fold change /veh SAMD14 (11745864_x_at) / RFU NPB (11741838_a_at) / Fold change /veh NPB (11741838_a_at) / RFU TMPRSS6 (11731388_a_at) / Fold change /veh TMPRSS6 (11731388_a_at) / RFU KRTAP10-2 (11738614_at) / Fold change /veh KRTAP10-2 (11738614_at) / RFU ARHGAP8 /// PRR5-ARHGAP8 (11727945_x_at) / Fold change /veh ARHGAP8 /// PRR5-ARHGAP8 (11727945_x_at) / RFU KRTAP5-7 /// NADSYN1 (11734609_at) / Fold change /veh KRTAP5-7 /// NADSYN1 (11734609_at) / RFU RASL12 (11751679_a_at) / Fold change /veh RASL12 (11751679_a_at) / RFU CDKN2B (11736163_a_at) / Fold change /veh CDKN2B (11736163_a_at) / RFU PRF1 (11729649_at) / Fold change /veh PRF1 (11729649_at) / RFU, ZNF638 /// ZNF638-IT1 / Fold change vs veh, ZNF638 /// ZNF638-IT1 / RFU, PANK3 / Fold change vs veh, PANK3 / RFU, SH3YL1 / Fold change vs veh, SH3YL1 / RFU, ZEB2 / Fold change vs veh, ZEB2 / RFU, NRIP1 / Fold change vs veh, NRIP1 / RFU, PTTG1IP / Fold change vs veh, PTTG1IP / RFU, CAPN2 / Fold change vs veh, CAPN2 / RFU, MED14 / Fold change vs veh, MED14 / RFU, SNORA58 / Fold change vs veh, SNORA58 / RFU, C1orf63 / Fold change vs veh, C1orf63 / RFU, LRRFIP1 / Fold change vs veh, LRRFIP1 / RFU, NDUFAF7 / Fold change vs veh, NDUFAF7 / RFU, SLC12A2 / Fold change vs veh, SLC12A2 / RFU, IBTK / Fold change vs veh, IBTK / RFU, ESF1 / Fold change vs veh, ESF1 / Fold change vs veh, TMEM50B / RFU, TAOK1 / Fold change vs veh, TAOK1 / RFU, ACBD3 / Fold change vs veh, ACBD3 / RFU, TMA16 / Fold change vs veh, TMA16 / RFU, RWDD3 / Fold change vs veh, RWDD3 / RFU, BCAT1 / Fold change vs veh, BCAT1 / RFU, EDEM3 / Fold change vs veh, EDEM3 / RFU, TMEM33 / Fold change vs veh, TMEM33 / RFU, WDR75 / Fold change vs veh, WDR75 / RFU, AHCTF1 / Fold change vs veh, AHCTF1 / RFU, TFRC / Fold change vs veh, TFRC / RFU, ZDHHC17 / Fold change vs veh, ZDHHC17 / RFU, NOM1 / Fold change vs veh, NOM1 / RFU, ARL8B / Fold change vs veh, ARL8B / RFU, ZBTB11 / Fold change vs veh, ZBTB11 / RFU, TAMM41 / Fold change vs veh, TAMM41 / RFU, KIAA1704 /// LOC100996395 / Fold change vs veh, KIAA1704 /// LOC100996395 / RFU, ING1 / Fold change vs veh, ING1 / RFU, TRMT61B / Fold change vs veh, TRMT61B / RFU, FUBP3 / Fold change vs veh, FUBP3 / RFU, TP53 / Fold change vs veh, TP53 / RFU, TNKS2 / Fold change vs veh, TNKS2 / RFU, ZFP14 / Fold change vs veh, ZFP14 / RFU, ACTR2 / Fold change vs veh, ACTR2 / RFU, PPP3R1 / Fold change vs veh, PPP3R1 / RFU, PIK3R1 / Fold change vs veh, PIK3R1 / RFU, HNRNPA1 / Fold change vs veh, HNRNPA1 / RFU, RNF170 / Fold change vs veh, RNF170 / RFU, ZNF28 / Fold change vs veh, ZNF28 / RFU, RNGTT / Fold change vs veh, RNGTT / RFU, OGT / Fold change vs veh, OGT / RFU, BRD1 / Fold change vs veh, BRD1 / RFU, MARS / Fold change vs veh, MARS / RFU, ZNF655 / Fold change vs veh, ZNF655 / RFU, FAHD1 / Fold change vs veh, FAHD1 / RFU, BDP1 / Fold change vs veh, BDP1 / RFU, LRRCC1 / Fold change vs veh, LRRCC1 / RFU, ARID1A / Fold change vs veh, ARID1A / RFU, ZNF146 / Fold change vs veh, ZNF146 / RFU, ZNF330 / Fold change vs veh, ZNF330 / RFU, GPN3 / Fold change vs veh, GPN3 / RFU, C9orf123 / Fold change vs veh, C9orf123 / RFU, N4BP2L2 / Fold change vs veh, N4BP2L2 / RFU, ARFIP1 / Fold change vs veh, ARFIP1 / RFU, FAM179B / Fold change vs veh, FAM179B / RFU, BCL10 / Fold change vs veh, BCL10 / RFU, UHRF1BP1L / Fold change vs veh, UHRF1BP1L / RFU, BET1 / Fold change vs veh, BET1 / RFU, CNOT2 / Fold change vs veh, CNOT2 / RFU, ZNF268 / Fold change vs veh, ZNF268 / Fold change vs veh, ZNF507 / RFU, DGCR2 / Fold change vs veh, DGCR2 / RFU, WDSUB1 / Fold change vs veh, WDSUB1 / Fold change vs veh, HSP90B1 /// MIR3652 / RFU, ADSS / Fold change vs veh, ADSS / RFU, GK / Fold change vs veh, GK / RFU, ZNF148 / Fold change vs veh, ZNF148 / RFU, TAF9 / Fold change vs veh, TAF9 / RFU, SLC1A5 / Fold change vs veh, SLC1A5 / RFU, SLMO2 / Fold change vs veh, SLMO2 / RFU, ABCC4 / Fold change vs veh, ABCC4 / RFU, LOC101060439 /// RAP1B / Fold change vs veh, LOC101060439 /// RAP1B / RFU, RFX7 / Fold change vs veh, RFX7 / RFU, GTPBP10 / Fold change vs veh, GTPBP10 / RFU, CNEP1R1 / Fold change vs veh, CNEP1R1 / RFU, BIVM-ERCC5 /// ERCC5 / Fold change vs veh, BIVM-ERCC5 /// ERCC5 / RFU, ILF3 / Fold change vs veh, ILF3 / RFU 11762660_at / Fold change /veh 11762660_at / RFU VCAN (11757783_s_at) / Fold change /veh VCAN (11757783_s_at) / RFU DDX43 (11728927_at) / Fold change /veh DDX43 (11728927_at) / RFU KRT8 (11758188_x_at) / Fold change /veh KRT8 (11758188_x_at) / RFU NKD1 (11759106_at) / Fold change /veh NKD1 (11759106_at) / RFU SRD5A1 (11742802_a_at) / Fold change /veh SRD5A1 (11742802_a_at) / RFU TPSAB1 /// TPSB2 (11721975_s_at) / Fold change /veh TPSAB1 /// TPSB2 (11721975_s_at) / RFU GSTM3 (11746129_a_at) / Fold change /veh GSTM3 (11746129_a_at) / RFU IL23R (11737362_x_at) / Fold change /veh IL23R (11737362_x_at) / RFU TMEM51 (11727254_a_at) / Fold change /veh TMEM51 (11727254_a_at) / RFU PIWIL2 (11732686_x_at) / Fold change /veh PIWIL2 (11732686_x_at) / RFU ORM1 (11744905_x_at) / Fold change /veh ORM1 (11744905_x_at) / RFU CCDC152 (11743942_at) / Fold change /veh CCDC152 (11743942_at) / RFU ECM1 (11717891_a_at) / Fold change /veh ECM1 (11717891_a_at) / RFU IL23R (11748794_a_at) / Fold change /veh IL23R (11748794_a_at) / RFU TNFAIP8L3 (11732012_x_at) / Fold change /veh TNFAIP8L3 (11732012_x_at) / RFU MBOAT4 (11741988_at) / Fold change /veh MBOAT4 (11741988_at) / RFU 11764193_at / Fold change /veh 11764193_at / RFU TMEM53 (11763286_at) / Fold change /veh TMEM53 (11763286_at) / RFU MAGEB2 (11727129_at) / Fold change /veh MAGEB2 (11727129_at) / RFU TMEM200A (11744735_a_at) / Fold change /veh TMEM200A (11744735_a_at) / RFU CCDC152 (11751479_a_at) / Fold change /veh CCDC152 (11751479_a_at) / RFU FAM211A (11726209_a_at) / Fold change /veh FAM211A (11726209_a_at) / RFU RGS16 (11746705_a_at) / Fold change /veh RGS16 (11746705_a_at) / RFU VCAN (11755009_s_at) / Fold change /veh VCAN (11755009_s_at) / RFU RHOB (11743442_s_at) / Fold change /veh RHOB (11743442_s_at) / RFU RGS16 (11720943_a_at) / Fold change /veh RGS16 (11720943_a_at) / RFU RGS16 (11720944_at) / Fold change /veh RGS16 (11720944_at) / RFU, VPS4B / Fold change vs veh, VPS4B / RFU, CREB1 / Fold change vs veh, CREB1 / RFU, DNAJC13 / Fold change vs veh, DNAJC13 / RFU, GNAQ / Fold change vs veh, GNAQ / RFU, CDK5R1 / Fold change vs veh, CDK5R1 / RFU, ZRANB3 / Fold change vs veh, ZRANB3 / RFU, CUL4A / Fold change vs veh, CUL4A / RFU, CCNY / Fold change vs veh, CCNY / RFU, UFL1 / Fold change vs veh, UFL1 / RFU, COG3 / Fold change vs veh, COG3 / RFU, DIAPH2 / Fold change vs veh, DIAPH2 / RFU, SKA2 / Fold change vs veh, SKA2 / RFU, AFF3 / Fold change vs veh, AFF3 / RFU, LMF1 / Fold change vs veh, LMF1 / RFU, IPO11 / Fold change vs veh, IPO11 / RFU, DFFB / Fold change vs veh, DFFB / RFU, FOXP1 / Fold change vs veh, FOXP1 / RFU, CARD8 / Fold change vs veh, CARD8 / RFU, STRN3 / Fold change vs veh, STRN3 / RFU, ADK / Fold change vs veh, ADK / RFU, RASSF2 / Fold change vs veh, RASSF2 / RFU, WIPF1 / Fold change vs veh, WIPF1 / RFU, LARP1B / Fold change vs veh, LARP1B / RFU, RASA1 / Fold change vs veh, RASA1 / RFU, RB1 / Fold change vs veh, RB1 / RFU, PPFIA1 / Fold change vs veh, PPFIA1 / RFU, MAT2A / Fold change vs veh, MAT2A / RFU, CCT5 / Fold change vs veh, CCT5 / RFU, WDR92 / Fold change vs veh, WDR92 / RFU, CUX1 / Fold change vs veh, CUX1 / RFU, TTC7A / Fold change vs veh, TTC7A / RFU, TMEM135 / Fold change vs veh, TMEM135 / RFU, DEPTOR / Fold change vs veh, DEPTOR / RFU, CPM / Fold change vs veh, CPM / RFU, DNAJB6 / Fold change vs veh, DNAJB6 / RFU, CACNA2D3 / Fold change vs veh, CACNA2D3 / RFU, DTX4 / Fold change vs veh, DTX4 / RFU, TFCP2 / Fold change vs veh, TFCP2 / RFU, GMCL1 /// GMCL1P1 / Fold change vs veh, GMCL1 /// GMCL1P1 / RFU, AEBP2 / Fold change vs veh, AEBP2 / RFU, SNHG1 /// SNORD22 /// SNORD25 /// SNORD26 /// SNORD27 /// SNORD28 /// SNORD29 /// SNORD31 / Fold change vs veh, SNHG1 /// SNORD22 /// SNORD25 /// SNORD26 /// SNORD27 /// SNORD28 /// SNORD29 /// SNORD31 / Fold change (Aza/veh), C12orf56 (ProbeSet 11735607_a_at) / Fold change (ACY-1035/veh), C12orf56 (ProbeSet 11735607_a_at) / Fold change (Aza/veh), FGFR1OP (ProbeSet 11751329_s_at) / Fold change (ACY-1035/veh), FGFR1OP (ProbeSet 11751329_s_at) / Fold change (Aza/veh), VPS36 (ProbeSet 11739960_a_at) / Fold change (ACY-1035/veh), VPS36 (ProbeSet 11739960_a_at) / RFU SYPL1 (11715823_x_at) / Fold change /veh SYPL1 (11715823_x_at) / RFU IGFBP7 (11715501_s_at) / Fold change /veh IGFBP7 (11715501_s_at) / RFU REEP3 (11722064_at) / Fold change /veh REEP3 (11722064_at) / RFU IGLL1 (11728026_x_at) / Fold change /veh IGLL1 (11728026_x_at): dose or concentration left out as unconfirmed
# Conditions: MV-4-11 cells, 48 hours
smiles,measurement,value
Nc1ncn([C@@H]2O[C@H](CO)[C@@H](O)[C@H]2O)c(=O)n1 [azacitidine],RFU LOC100653217 /// NTM (11731650_a_at),11.58 RFU
